In PMC12749166, “Fragment-based drug design of a bacterial kinase inhibitor capable of increasing the antibiotic sensitivity of clinical isolates” (Communications Chemistry, 2025):
Values after ≈ are worked out from the molar mass of the structure shown. Like-named read-outs stand apart in the source and are kept apart here.

Tests used:
[1] = test system: P. aeruginosa clinical isolates; test: MIC by broth micro-dilution; format: cell-based; details: Pseudomonas aeruginosa, read-out: MIC
[2] = test system: S. aureus C0032; test: MIC by broth micro-dilution; format: cell-based; details: Staphylococcus aureus; S. aureus C0032, aph(3')-IIIa ant(6); read-out: MIC
[3] = target: T1, APH(2”)-IVa (Enterococcus casseliflavus, UniProt O68183); test: biochemical; format: binding; details: read-out: ΔTm (°C)
T1 sequence (O68183 1-301): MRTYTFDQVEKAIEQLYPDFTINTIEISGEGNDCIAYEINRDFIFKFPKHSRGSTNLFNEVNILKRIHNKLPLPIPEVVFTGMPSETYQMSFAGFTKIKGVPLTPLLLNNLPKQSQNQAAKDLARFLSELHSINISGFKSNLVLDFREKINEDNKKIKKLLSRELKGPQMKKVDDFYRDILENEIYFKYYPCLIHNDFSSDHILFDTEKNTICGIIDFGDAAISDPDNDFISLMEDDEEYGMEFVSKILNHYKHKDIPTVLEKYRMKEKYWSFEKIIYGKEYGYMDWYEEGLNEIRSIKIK
Procedure: Thermal shift assays were performed using an RTqPCR machine Mx3005P (Stratagene) in 96-well plates (Thermo-Fast low Profile, ThermoScientific) by mixing the protein at 5 µM, SYPRO® Orange (Sigma Aldrich) at […], and fragments at 500 µM. Fluorescence was followed with Cy3 and SYAL filters. Denaturation curves were collected using MxPro-Mx3005P v4.10 software and analyzed using the implemented version of wTSA-CRAFT[36].

[4] = target: T1, APH(2”)-IVa
[5] = target: T1, APH(2”)-IVa; test: biochemical; details: Ki (µM), inhibition constant, ATP-competitive; 0-2 mM MgATP, 100 µM kanamycin A, global fitting
[6] = P. aeruginosa C0214, aph(3')-IIb
[7] = P. aeruginosa C0307, aph(3')-IIb

Row | Compound | ΔTm at 500 µM [3] [°C] | Ki [5] [µM] | also measured
1 | NCC[C@H](O)C(=O)N[C@@H]1C[C@H](N)[C@@H](O[C@H]2O[C@H](CN)[C@@H](O)[C@H](O)[C@H]2O)[C@H](O)[C@H]1O[C@H]1O[C@H](CO)[C@@H](O)[C@H](N)[C@H]1O [Amikacin] | – | – | MIC [1, 6]: 8 to 32 µg/mL (≈ 13.7 to 54.6 µM); MIC [1, 7]: 4 to 8 µg/mL (≈ 6.83 to 13.7 µM); MIC [2]: 16 to 32 µg/mL (≈ 27.3 to 54.6 µM)
2 | Nc1ccc(Br)cn1 [Compound 1] | 0.5 | – | –
3 | Clc1cnc2[nH]ccc2c1 [Compound 2, 5-chloro-7-azaindole] | – | 9.63 | Inhibition relative to F136 ([4]; 500 µM, times more inhibition than F136): 5.9 times
4 | O=C(Nc1ccc(Cl)cc1)Nc1ccc(Cl)cn1 [Compound 6] | 0.17 | – | –
5 | O=C(Nc1ccc(Br)cc1)Nc1ccc(Br)cn1 [Compound 7] | -0.26 | – | –
6 | O=C(O)CNC(=O)Nc1ccc(Br)cn1 [Compound 8] | -0.25 | – | –
7 | Clc1ccc(NCCc2ccccc2)nc1 [Compound 11] | 0.48 | – | –
8 | Nc1ncc(Cl)cc1S(=O)(=O)N1CCCC(N)C1 (centres unmarked) [Compound 16] | 1.7 | – | –
9 | Nc1ncc(Cl)cc1S(=O)(=O)N1CCCNCC1 [Compound 17] | 1.05 | – | –
10 | CC1CCCN(S(=O)(=O)c2cc(Cl)cnc2N)C1CN (centres unmarked) [Compound 22] | 0.2 | – | –
11 | Nc1ncc(Cl)cc1S(=O)(=O)NC1CCCNC1 (centres unmarked) [Compound 23] | 0.33 | – | –
12 | Nc1ncc(Cl)cc1S(=O)(=O)N1CCCCC1c1ncc[nH]1 (centres unmarked) [Compound 24] | 1.99 | – | –
13 | Nc1ncc(Cl)cc1S(=O)(=O)NCCCN1CCC(O)CC1 [Compound 25] | 0.6 | – | –
14 | Cn1nccc1C1CCCN(c2cc(N)ncc2Cl)C1 (centres unmarked) [Compound 27] | -1.45 | – | –
15 | Nc1cc(N2CCC(C(=O)N3CCCCC3)CC2)c(Cl)cn1 [Compound 28] | -1.78 | – | –
16 | Nc1cc(N2CCOC(c3ccccc3)C2)c(Cl)cn1 (centres unmarked) [Compound 30] | -1.22 | – | –
17 | O=C(NCCc1ccccc1)c1cc(NC2CC2)ncc1Cl [Compound 36-1] | – | 66.1 | –
18 | O=C(NCCc1ccc(O)cc1)c1cc(NC2CC2)ncc1Cl [Compound 36-2] | – | 11.9 | –
19 | NC(=O)CNC(=O)c1cc(NC2CC2)ncc1Cl [Compound 36-3] | – | 32.3 | –
20 | O=C(NCc1ccccc1)c1cc(NC2CC2)ncc1Cl [Compound 36-4] | – | 79.1 | –
21 | O=C(NCCO)c1cc(NC2CC2)ncc1Cl [Compound 36-5] | – | 25.6 | –
22 | NNC(=O)c1cc(NC2CC2)ncc1Cl [Compound 36-6] | – | 11.4 | –
23 | CN(C)CCNC(=O)c1cc(NC2CC2)ncc1Cl [Compound 36-7] | – | 18.6 | –
24 | NCCNC(=O)c1cc(NC2CC2)ncc1Cl [Compound 36-8] | – | 16.3 | –

Row | Compound | ΔTm at 500 µM [3] [°C] | Ki [5] [µM] | also measured
25 | O=C(NCCc1ccn(-c2ccccc2)n1)c1cc(NC2CC2)ncc1Cl [Compound 36-9] | – | 13.4 | –
26 | O=C(Nc1ccc(O)cc1)Nc1ccc(F)cc1 [Compound 37] | 1.17 | – | –
27 | Nc1cncc(-c2cc[nH]n2)c1 [Compound 58] | 1.18 | – | –
28 | O=Cc1cncc(-c2cc[nH]n2)c1 [Compound 66] | 0.54 | – | –
29 | COC(=O)c1cncc(-c2cc[nH]n2)c1 [Compound 67] | 1.16 | – | –
30 | Nc1cc(-c2ccn[nH]2)ccn1 [Compound 68] | 1.29 | 81.9 | –
31 | O=C(O)c1c[nH]c2ncc(Cl)cc12 [Compound 79] | – | 27.5 | –
32 | NC(=O)c1c[nH]c2ncc(Cl)cc12 [Compound 80] | – | 10.3 | –
33 | CNC(=O)c1c[nH]c2ncc(Cl)cc12 [Compound 81] | – | 9.47 | –
34 | CN(C)C(=O)c1c[nH]c2ncc(Cl)cc12 [Compound 82] | – | 19.7 | –
35 | Clc1cnc2[nH]ccc2c1-c1cn[nH]c1 [Compound 84] | – | 1.58 | –
36 | Clc1cnc2[nH]ccc2c1-c1ccc[nH]1 [Compound 85] | – | 1.74 | –
37 | Clc1cnc2[nH]ccc2c1-c1ccsc1 [Compound 86] | – | 1.75 | –
38 | Nc1ccccn1 [Compound F68] | -0.27 | 260 | Inhibition [4]: 11%
39 | Nc1ccc(Cl)cn1 [Compound F69] | – | – | Inhibition relative to F68 ([4]; 500 µM, times more inhibition than F68): 6.2 times
40 | c1cnc2[nH]ccc2c1 [Compound F136, 7-azaindole] | 0.06 | – | –
41 | CC(=O)c1cc2ccccc2oc1=O [Compound F144] | 0.09 | – | –
42 | OCc1c[nH]c2ncccc12 [Compound F355, 3-hydroxymethyl-7-azaindole] | -0.41 | – | –
43 | C[C@@H](O)[C@H]1C(=O)N2C(C(=O)O)=C(S[C@@H]3CN[C@H](CNS(N)(=O)=O)C3)[C@H](C)[C@H]12 [Doripenem] | – | – | MIC [1, 6]: 0.5 to 1 µg/mL (≈ 1.19 to 2.38 µM); MIC [1, 7]: 0.25 µg/mL (≈ 0.595 µM); MIC [2]: > 4 µg/mL
44 | C[C@@H](O)[C@H]1C(=O)N2C(C(=O)O)=C(S[C@@H]3CN[C@H](C(=O)Nc4cccc(C(=O)O)c4)C3)[C@H](C)[C@H]12 [Ertapenem] | – | – | MIC [1, 6]: > 2 µg/mL; MIC [1, 7]: 8 to 16 µg/mL (≈ 16.8 to 33.6 µM); MIC [2]: 4 µg/mL (≈ 8.41 µM)
45 | CNC(C)C1CCC(N)C(OC2C(N)CC(N)C(OC3OCC(C)(O)C(NC)C3O)C2O)O1 (centres unmarked) [Gentamicin] | – | – | MIC [1, 6]: 2 µg/mL (≈ 4.19 µM); MIC [1, 7]: 2 µg/mL (≈ 4.19 µM); MIC [2]: < 1 µg/mL
46 | C[C@@H](O)[C@H]1C(=O)N2C(C(=O)O)=C(SCCN=CN)C[C@H]12 [Imipenem] | – | – | MIC [1, 6]: > 2 µg/mL; MIC [1, 7]: 2 µg/mL (≈ 6.68 µM)
47 | C[C@@H](O)[C@H]1C(=O)N2C(C(=O)O)=C(S[C@@H]3CN[C@H](C(=O)N(C)C)C3)[C@H](C)[C@H]12 [Meropenem] | – | – | MIC [1, 6]: 0.5 to 1 µg/mL (≈ 1.3 to 2.61 µM); MIC [1, 7]: 0.063 to 0.125 µg/mL (≈ 0.164 to 0.326 µM); MIC [2]: > 4 µg/mL
48 | [H]/N=C(/N)N[C@H]1[C@H](O)[C@@H](O)[C@H](O[C@@H]2O[C@@H](C)[C@](O)(C=O)[C@H]2O[C@@H]2O[C@@H](CO)[C@H](O)[C@@H](O)[C@@H]2NC)[C@@H](N/C(N)=N\[H])[C@@H]1O [Streptomycin] | – | – | MIC [1, 6]: 32 µg/mL (≈ 55 µM); MIC [1, 7]: 64 µg/mL (≈ 110 µM); MIC [2]: 2 to 4 µg/mL (≈ 3.44 to 6.88 µM)
